PubChem BioAssay AID588677 (The Scripps Research Institute Molecular Screening Center, 2011)
The source made the active and inactive calls.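 Rule for the calls: active = phosphorylated EGFR protein level shifted down or up by at least 30% versus solvent-only treated cells; inactive = shift under 30% in either direction.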

Molecular target: Epidermal growth factor receptor (Homo sapiens) (UniProt P00533)
Experiment: phospho-EGFR protein level reduction, late-stage follow-up, counter-screen for KLF5 inhibitor project, SW620 cells, chemiluminescent western blot, powder samples (AID 588677)
Details: p-EGFR western blot, 24 h, at 10 µM; for fold change: measured here: p-EGFR band fold change vs DMSO

Chain of Epidermal growth factor receptor (Homo sapiens) (P00533 whole entry, looked up): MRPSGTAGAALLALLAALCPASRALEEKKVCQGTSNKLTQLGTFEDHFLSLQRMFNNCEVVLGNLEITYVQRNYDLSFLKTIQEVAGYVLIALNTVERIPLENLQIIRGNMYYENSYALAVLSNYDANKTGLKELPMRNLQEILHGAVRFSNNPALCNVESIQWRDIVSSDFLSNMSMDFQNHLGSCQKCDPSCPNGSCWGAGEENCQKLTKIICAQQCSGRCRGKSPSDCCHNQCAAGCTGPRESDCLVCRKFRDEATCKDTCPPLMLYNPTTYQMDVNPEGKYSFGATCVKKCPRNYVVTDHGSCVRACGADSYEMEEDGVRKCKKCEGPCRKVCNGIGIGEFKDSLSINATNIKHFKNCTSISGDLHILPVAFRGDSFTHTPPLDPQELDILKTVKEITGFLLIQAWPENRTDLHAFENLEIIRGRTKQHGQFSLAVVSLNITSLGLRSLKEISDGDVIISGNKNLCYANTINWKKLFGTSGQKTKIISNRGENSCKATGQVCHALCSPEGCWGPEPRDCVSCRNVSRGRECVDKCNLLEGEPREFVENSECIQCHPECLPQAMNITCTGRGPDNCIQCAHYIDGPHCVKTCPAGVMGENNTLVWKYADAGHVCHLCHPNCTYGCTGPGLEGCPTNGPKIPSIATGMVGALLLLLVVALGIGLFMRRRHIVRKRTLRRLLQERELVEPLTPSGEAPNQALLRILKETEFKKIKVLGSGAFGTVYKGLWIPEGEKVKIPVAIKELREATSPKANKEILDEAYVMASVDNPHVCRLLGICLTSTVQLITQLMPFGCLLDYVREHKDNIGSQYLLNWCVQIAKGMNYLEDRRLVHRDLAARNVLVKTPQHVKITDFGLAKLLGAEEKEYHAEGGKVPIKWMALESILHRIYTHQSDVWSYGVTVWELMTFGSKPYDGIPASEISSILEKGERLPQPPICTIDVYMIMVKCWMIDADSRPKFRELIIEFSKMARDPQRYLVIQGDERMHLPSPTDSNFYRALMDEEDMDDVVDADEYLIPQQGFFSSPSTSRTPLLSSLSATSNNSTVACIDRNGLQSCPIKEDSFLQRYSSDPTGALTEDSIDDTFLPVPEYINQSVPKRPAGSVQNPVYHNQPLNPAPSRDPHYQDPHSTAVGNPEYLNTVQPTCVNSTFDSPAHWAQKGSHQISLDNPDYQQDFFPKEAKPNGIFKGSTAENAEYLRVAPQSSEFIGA

inhibition	SMILES	fold change
20% (inactive)	CN(C(=O)CNC(=O)/C=C/c1cccc(Cl)c1)C1CCS(=O)(=O)C1 (stereo not given)	-1.25
–	CN(C(=O)CNC(=O)/C=C/c1cccc(Cl)c1)C1CCS(=O)(=O)CC1	14.2
-71.5%	CN(C(=O)COC(=O)/C=C/c1cccc([N+](=O)[O-])c1)C1CCS(=O)(=O)C1 (stereo not given)	1.72
